Source: the supplement of paper PMC10307832

Legend:
Test in all cases: relative viability (nuclei count vs DMSO), 5 days (fraction); higher = more cells survive
XMD8-85 + Palbociclib = compound: CN1CCN(CC1)C2=CC(=C(C=C2)NC3=NC=C4C(=N3)N(C5=CC=CC=C5C(=O)N4C)C)OC [XMD8-85] + CC(=O)c1c(C)c2cnc(Nc3ccc(N4CCNCC4)cn3)nc2n(C2CCCC2)c1=O [Palbociclib] (partner 0.5 µM)
Summary of the method: (§1)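 Each reported value is a median over duplicate plates. It expresses relative viability: treated-well nuclei count divided by vehicle-well nuclei count. Lung cancer cell lines in 1536-well plates were dosed by pin tool a day after seeding, alone with one drug or with a fixed anchor-drug dose plus five library-drug doses (not always all listed) in √10 steps, and nuclei were counted after 5 days.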

XMD8-85 + Linsitinib = compound: CN1CCN(CC1)C2=CC(=C(C=C2)NC3=NC=C4C(=N3)N(C5=CC=CC=C5C(=O)N4C)C)OC [XMD8-85] + C[C@]1(O)C[C@@H](c2nc(-c3ccc4ccc(-c5ccccc5)nc4c3)c3c(N)nccn32)C1 [Linsitinib] (partner 1 µM)
Summary of the method: as §1

XMD8-85 + Trametinib = compound: CN1CCN(CC1)C2=CC(=C(C=C2)NC3=NC=C4C(=N3)N(C5=CC=CC=C5C(=O)N4C)C)OC [XMD8-85] + CC(=O)Nc1cccc(-n2c(=O)n(C3CC3)c(=O)c3c(Nc4ccc(I)cc4F)n(C)c(=O)c(C)c32)c1 [Trametinib] (partner 0.02 µM)
Summary of the method: as §1

XMD8-85 + Navitoclax = compound: CN1CCN(CC1)C2=CC(=C(C=C2)NC3=NC=C4C(=N3)N(C5=CC=CC=C5C(=O)N4C)C)OC [XMD8-85] + CC1(C)CCC(c2ccc(Cl)cc2)=C(CN2CCN(c3ccc(C(=O)NS(=O)(=O)c4ccc(N[C@H](CCN5CCOCC5)CSc5ccccc5)c(S(=O)(=O)C(F)(F)F)c4)cc3)CC2)C1 [Navitoclax] (partner 0.5 µM)
Summary of the method: as §1

Cell Line | relative viability (XMD8-85 + Palbociclib; first compound 0.08 µM) | relative viability (XMD8-85 + Palbociclib; first compound 0.253 µM) | relative viability (XMD8-85 + Palbociclib; first compound 0.8 µM) | relative viability (XMD8-85 + Palbociclib; first compound 2.53 µM) | relative viability (XMD8-85 + Palbociclib; first compound 8 µM) | relative viability (XMD8-85 + Linsitinib; first compound 0.08 µM) | relative viability (XMD8-85 + Linsitinib; first compound 0.253 µM) | relative viability (XMD8-85 + Linsitinib; first compound 0.8 µM) | relative viability (XMD8-85 + Linsitinib; first compound 2.53 µM) | relative viability (XMD8-85 + Linsitinib; first compound 8 µM) | relative viability (XMD8-85 + Trametinib; first compound 0.08 µM) | relative viability (XMD8-85 + Trametinib; first compound 0.253 µM) | relative viability (XMD8-85 + Trametinib; first compound 0.8 µM) | relative viability (XMD8-85 + Trametinib; first compound 2.53 µM) | relative viability (XMD8-85 + Trametinib; first compound 8 µM) | relative viability (XMD8-85 + Navitoclax; first compound 0.08 µM) | relative viability (XMD8-85 + Navitoclax; first compound 0.253 µM) | relative viability (XMD8-85 + Navitoclax; first compound 0.8 µM) | relative viability (XMD8-85 + Navitoclax; first compound 2.53 µM) | relative viability (XMD8-85 + Navitoclax; first compound 8 µM)
NCI-H1975 | 0.587 | 0.511 | 0.524 | 0.651 | 0.296 | 1.01 | 0.908 | 0.981 | 1.03 | 0.498 | 0.37 | 0.376 | 0.334 | 0.361 | 0.268 | 1.25 | 1.12 | 1.09 | 1.09 | 0.532
NCI-H1703 |  |  |  |  |  | 0.496 | 1.1 |  | 0.773 | 0.641 |  |  |  |  |  | 1.02 | 1.18 | 1.23 | 1.13 | 0.983
201T | 0.342 | 0.321 | 0.36 | 0.34 | 0.325 | 1 | 1.05 | 0.994 | 1.05 | 1.01 | 0.718 | 0.746 | 0.738 | 0.681 | 0.617 | 1.2 | 1.24 | 1.26 | 1.19 | 1.08
LK-2 | 0.554 | 0.778 | 0.592 | 0.491 | 0.668 | 0.524 | 0.52 | 0.498 | 0.365 | 0.445 | 0.858 | 0.611 | 0.538 | 0.448 | 0.312 | 0.74 | 0.915 | 0.883 | 0.772 | 0.699
HCC-78 | 0.544 | 0.459 | 0.564 | 0.503 | 0.435 | 0.594 | 0.532 | 0.445 | 0.443 | 0.382 | 1.14 | 1.02 | 0.735 | 0.536 | 0.402 | 0.891 | 0.882 | 0.6 | 0.682 | 0.58
EMC-BAC-2 | 0.494 | 0.495 | 0.504 | 0.473 | 0.458 | 0.851 | 0.803 | 0.793 | 0.797 | 0.813 | 0.901 | 0.879 | 0.895 | 0.828 | 0.67 | 1.12 | 1.23 | 1.16 | 1.13 | 1.16
NCI-H2023 | 0.368 | 0.441 | 0.334 | 0.411 | 0.246 | 0.564 | 0.811 | 0.76 | 0.657 | 0.34 | 0.515 | 0.535 | 0.685 | 0.557 | 0.284 | 0.924 | 1.08 | 1.13 | 0.997 | 
SK-MES-1 | 0.342 | 0.351 | 0.31 |  | 0.248 | 1.09 | 0.942 | 0.95 | 1 | 0.964 | 0.57 | 0.616 | 0.49 | 0.428 | 0.304 | 1.22 | 1.33 | 1.06 | 1.19 | 0.866
IA-LM |  |  |  |  |  | 0.385 | 0.563 | 0.562 | 0.393 | 0.166 |  |  |  |  |  | 0.75 |  | 0.763 | 0.641 | 0.185
NCI-H1563 |  |  |  |  |  | 1.2 | 1.26 | 1.13 | 1.27 | 0.844 |  |  |  |  |  |  |  |  |  | 
LCLC-103H | 0.483 | 0.445 | 0.489 | 0.484 | 0.405 | 1.05 | 1.03 | 1.12 | 1.19 | 0.857 | 0.728 | 0.637 | 0.683 | 0.676 | 0.522 |  |  |  |  | 
NCI-H596 |  |  |  |  |  | 0.956 | 1.12 | 1.08 | 0.961 | 0.628 | 0.866 | 0.72 | 0.675 | 0.769 | 0.696 | 1.04 | 1.13 | 1.07 | 0.68 | 0.377
SW 900 | 0.553 | 0.535 | 0.594 | 0.496 | 0.324 |  |  |  |  |  | 0.813 | 0.746 | 0.935 |  | 0.759 |  |  |  |  | 
NCI-H2170 | 0.38 | 0.374 | 0.436 | 0.383 | 0.332 |  |  |  |  |  | 0.848 | 0.845 | 1.03 | 1 | 0.702 | 0.62 | 0.682 | 0.64 | 0.675 | 0.666
NCI-H522 | 1.09 | 1.03 | 0.822 | 0.737 | 0.648 |  |  |  |  |  | 0.821 | 0.653 | 0.739 | 0.698 | 0.537 |  |  |  |  | 
EBC-1 |  |  |  |  |  | 0.683 | 0.856 | 0.753 | 0.811 | 0.293 |  |  |  |  |  | 0.437 | 0.375 | 0.402 | 0.296 | 0.268
ChaGo-K-1 | 0.99 | 0.965 | 0.963 | 0.931 | 0.899 |  |  |  |  |  | 0.926 | 0.908 | 0.944 | 0.962 | 0.668 | 0.788 | 0.983 | 1.02 | 1.13 | 0.421
NCI-H1650 | 0.296 | 0.317 | 0.318 | 0.353 | 0.193 |  |  |  |  |  | 0.629 | 0.539 | 0.784 | 0.426 | 0.36 | 1.15 | 1.32 | 1.29 | 1.16 | 0.439
NCI-H661 | 0.401 |  | 0.4 | 0.443 | 0.346 | 0.523 | 0.518 | 0.523 | 0.579 | 0.448 | 0.548 | 0.536 | 0.583 | 0.653 | 0.43 |  |  |  |  | 
NCI-H1648 | 0.251 | 0.261 | 0.225 | 0.258 | 0.288 |  |  |  |  |  | 0.493 | 0.416 | 0.397 | 0.337 | 0.354 |  |  |  |  | 
NCI-H2342 | 0.445 | 0.561 | 0.503 | 0.544 | 0.533 |  |  |  |  |  | 0.747 | 0.807 | 0.859 | 0.922 | 0.991 |  |  |  |  | 
Calu-6 |  |  |  |  |  | 0.985 | 0.946 | 0.994 | 0.894 | 0.788 |  |  |  |  |  | 0.93 | 0.953 | 0.911 | 1.02 | 0.668
ABC-1 | 0.468 | 0.598 | 0.781 | 0.689 |  | 0.825 | 0.777 | 0.755 | 0.681 | 0.406 |  |  |  |  |  |  |  |  |  | 
